Experimental data published in patent US6723343B2, “Pharmaceutical tramadol salts” (Gruenenthal GmbH, priority 1999, dated 2004).

Settings: deionized water, 25° C., stirred for 20 hours, HPLC against tramadol hydrochloride as standard
Experimental: The solubility of the salts of tramadol and a sugar substitute was determined as follows:
The requisite amount of the salt of tramadol and the appropriate sugar substitute can optionally be determined by preliminary experiments.
After the undissolved salt of tramadol and the appropriate sugar substitute had been allowed to settle out, the clear supernatant was pipetted off and centrifuged for 5 minutes at a speed of at least 3000 rpm. Part of the resulting clear supernatant is transferred to an HPLC sample vial and the concentration of the salt of tramadol and the appropriate sugar substitute is determined against tramadol hydrochloride as standard.

In the case of COc1cccc(C2(O)CCCCC2CN(C)C)c1.O=C1NS(=O)(=O)c2ccccc21 (stereo not shown) [tramadol saccharinate], the solubility in water is reported as 22.5 mg/mL.
